The target in assay [1] is Epidermal growth factor receptor (Homo sapiens, UniProt P00533). As to the kind of experiment: Inhibition of EGFR expressed in Sf9 cells assessed as inhibition of receptor autophosphorylation by DELFIA time resolved fluorimetry.
Assay [2] relates to HT-29. The assay can be described thus: Antiproliferative activity against human HT-29 cells after 48 hrs by MTT assay. Conditions: HT-29, 48 h. Background: Tetrazolium dyes change colour on reduction, which living cells bring about.

A word on the IC50: it is the concentration at which inhibition is half-maximal.

Structures are written as SMILES. Converted amounts (≈) assume the structure as drawn.

Chain of Epidermal growth factor receptor (P00533 whole entry): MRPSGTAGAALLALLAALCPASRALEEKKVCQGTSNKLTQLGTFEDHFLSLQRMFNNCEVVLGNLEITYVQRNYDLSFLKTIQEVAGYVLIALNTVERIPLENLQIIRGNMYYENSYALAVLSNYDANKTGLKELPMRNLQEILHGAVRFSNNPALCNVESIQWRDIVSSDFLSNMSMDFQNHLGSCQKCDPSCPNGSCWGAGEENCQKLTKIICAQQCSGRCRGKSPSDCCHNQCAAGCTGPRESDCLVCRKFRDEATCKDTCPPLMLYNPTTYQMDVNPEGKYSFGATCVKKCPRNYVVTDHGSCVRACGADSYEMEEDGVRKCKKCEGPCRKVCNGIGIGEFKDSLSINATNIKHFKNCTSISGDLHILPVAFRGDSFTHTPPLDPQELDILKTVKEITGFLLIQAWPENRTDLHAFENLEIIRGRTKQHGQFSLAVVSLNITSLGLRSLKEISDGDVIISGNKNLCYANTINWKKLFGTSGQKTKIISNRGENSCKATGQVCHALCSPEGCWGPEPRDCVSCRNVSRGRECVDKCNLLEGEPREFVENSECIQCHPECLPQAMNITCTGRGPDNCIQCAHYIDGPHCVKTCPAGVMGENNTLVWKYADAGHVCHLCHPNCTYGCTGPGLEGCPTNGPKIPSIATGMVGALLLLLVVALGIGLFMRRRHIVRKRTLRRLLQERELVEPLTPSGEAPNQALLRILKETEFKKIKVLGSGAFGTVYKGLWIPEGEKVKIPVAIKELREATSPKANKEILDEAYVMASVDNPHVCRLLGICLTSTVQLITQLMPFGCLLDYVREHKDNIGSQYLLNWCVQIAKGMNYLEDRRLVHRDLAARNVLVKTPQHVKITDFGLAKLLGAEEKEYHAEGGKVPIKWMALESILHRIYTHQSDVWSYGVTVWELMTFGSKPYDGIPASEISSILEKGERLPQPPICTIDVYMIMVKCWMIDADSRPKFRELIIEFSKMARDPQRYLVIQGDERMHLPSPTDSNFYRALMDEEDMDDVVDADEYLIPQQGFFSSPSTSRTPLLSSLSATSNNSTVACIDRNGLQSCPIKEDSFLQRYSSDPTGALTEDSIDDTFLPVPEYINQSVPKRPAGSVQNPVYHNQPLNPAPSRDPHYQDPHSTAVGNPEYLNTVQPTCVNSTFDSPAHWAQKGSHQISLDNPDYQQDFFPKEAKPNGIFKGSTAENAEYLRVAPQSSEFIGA

`CCCCCCOC(=O)COc1cc(O)c2c(=O)cc(-c3ccccc3)oc2c1`: the IC50 in assay [1] was found to be 9120 nM; in assay [2] it was 77 µg/mL (≈ 194 µM).
Taken in the same sequence, the figures for `CCCCCCCCCCCCCCCCCCCCOC(=O)COc1cc(O)c2c(=O)cc(-c3ccccc3)oc2c1` were 1590 nM and 20 µg/mL (≈ 33.7 µM).
Taken in the same sequence, the figures for `CCCCCCCCCCCCCCCCCCCCNC(=O)COc1cc(O)c2c(=O)cc(-c3ccccc3)oc2c1` were 1350 nM and 19 µg/mL (≈ 32.1 µM).
On to `CCCCCCCCCCCCCCCCCCOC(=O)COc1cc(O)c2c(=O)cc(-c3ccccc3)oc2c1`, for which the half-inhibitory concentration (IC50) in assay [1] is 692 nM; in assay [2] it was 15 µg/mL (≈ 26.6 µM).
Taken in the same sequence, the figures for `CCCCCCCNC(=O)COc1cc(O)c2c(=O)cc(-c3ccccc3)oc2c1` were 6280 nM and 65 µg/mL (≈ 159 µM).
Taken in the same sequence, the figures for `CCCCCCCCNC(=O)COc1cc(O)c2c(=O)cc(-c3ccccc3)oc2c1` were 5330 nM and 51 µg/mL (≈ 120 µM).
Consider `CCCCCCCCCNC(=O)COc1cc(O)c2c(=O)cc(-c3ccccc3)oc2c1`, for which the IC50 worked out at 3580 nM in assay [1] and 39 µg/mL (≈ 89.1 µM) in assay [2].
With `CCCCCCCCCCCCNC(=O)COc1cc(O)c2c(=O)cc(-c3ccccc3)oc2c1`, inhibition in assay [2] was half-maximal at 16 µg/mL (≈ 33.4 µM) (IC50).
Regarding `CCCCCCCCCCCCOC(=O)COc1cc(O)c2c(=O)cc(-c3ccccc3)oc2c1`, the IC50 in assay [1] was 1720 nM; in assay [2], 24 µg/mL (≈ 49.9 µM).
Turning to `CCCCCCCCCCCCCCOC(=O)COc1cc(O)c2c(=O)cc(-c3ccccc3)oc2c1`, half-maximal inhibition in assay [2] (IC50) was put at 16 µg/mL (≈ 31.5 µM).
For the compound `CCCCCCCCCCCCCCCCOC(=O)COc1cc(O)c2c(=O)cc(-c3ccccc3)oc2c1`, the IC50 came out at 48 nM in assay [1] and 8.7 µg/mL (≈ 16.2 µM) in assay [2].
Taken in the same sequence, the figures for `CCCCCCCCCCCCCCNC(=O)COc1cc(O)c2c(=O)cc(-c3ccccc3)oc2c1` were 316 nM and 8 µg/mL (≈ 15.8 µM).
Taken in the same sequence, the figures for `CCCCCCCCCOC(=O)COc1cc(O)c2c(=O)cc(-c3ccccc3)oc2c1` were 4960 nM and 43 µg/mL (≈ 98.1 µM).
Take `CCCCCCCOC(=O)COc1cc(O)c2c(=O)cc(-c3ccccc3)oc2c1`: the IC50 in assay [1] stood at 7230 nM; in assay [2] it was 58 µg/mL (≈ 141 µM).
Taken in the same sequence, the figures for `CCCCCCCCCCOC(=O)COc1cc(O)c2c(=O)cc(-c3ccccc3)oc2c1` were 3110 nM and 31 µg/mL (≈ 68.5 µM).
Taken in the same sequence, the figures for `CCCCCCCCCCCCCCCCCCNC(=O)COc1cc(O)c2c(=O)cc(-c3ccccc3)oc2c1` were 464 nM and 11 µg/mL (≈ 19.5 µM).
With `CCCCCCCCCCCCCCCCNC(=O)COc1cc(O)c2c(=O)cc(-c3ccccc3)oc2c1`, the results for the IC50 in assay [1] and in assay [2] were 35 nM and 4.2 µg/mL (≈ 7.84 µM), respectively.
Taken in the same sequence, the figures for `CCCCCCCCOC(=O)COc1cc(O)c2c(=O)cc(-c3ccccc3)oc2c1` were 5840 nM and 51 µg/mL (≈ 120 µM).
Taken in the same sequence, the figures for `CCCCCCCCCCNC(=O)COc1cc(O)c2c(=O)cc(-c3ccccc3)oc2c1` were 2140 nM and 25 µg/mL (≈ 55.4 µM).
Taken in the same sequence, the figures for `CCCCCCNC(=O)COc1cc(O)c2c(=O)cc(-c3ccccc3)oc2c1` were 8710 nM and 67 µg/mL (≈ 169 µM).

The values above are taken from ChEMBL document CHEMBL1159111, “Design, synthesis and biological evaluation of chrysin long-chain derivatives as potential anticancer agents” (Bioorg Med Chem, 2010).
